Data published in patent publication US7271171B2, “Adenosine A3 receptor modulators” (King Pharmaceuticals Research and Development, Inc., priority 1998, dated 2007).
Where two headings read alike, the source gives them in different places.

Tests used:
adenosine A3 receptor = target: T1, adenosine A3 receptor (Homo sapiens, UniProt P0DMS8); test: Adenylate cyclase assay: block of agonist-induced inhibition of cAMP production; assay type: biochemical; details: FIG. 2, comparison in words
T1 construct: expressed in transfected cells; host or cells: CHO
T1 sequence (P0DMS8 1-318): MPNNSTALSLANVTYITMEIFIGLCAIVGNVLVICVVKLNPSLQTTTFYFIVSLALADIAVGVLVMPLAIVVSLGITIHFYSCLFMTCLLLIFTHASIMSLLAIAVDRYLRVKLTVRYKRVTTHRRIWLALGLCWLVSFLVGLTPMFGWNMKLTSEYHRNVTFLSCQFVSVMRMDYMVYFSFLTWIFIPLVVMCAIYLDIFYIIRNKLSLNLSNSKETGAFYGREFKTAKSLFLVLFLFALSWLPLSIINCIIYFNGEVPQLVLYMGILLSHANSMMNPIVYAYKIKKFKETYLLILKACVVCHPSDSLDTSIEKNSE
Protocol: (§1) The expression of the human A1, A2A, A2B and A3 receptors in CHO cells has been previously described (Klotz et al., 1998). The cells are grown adherently and maintained in Dulbecco's modified Eagle's medium with nutrient mixture F12 without nucleosides at 37 ° C. in 5% CO2/95% air. Cells are split two or three times weekly and then the culture medium is removed for membrane preparations. The cells are washed with phosphate-buffered saline and scraped off flasks in ice cold hypotonic buffer (5 mM Tris HCl, 2 mM EDTA, pH 7.4). The cell suspension is homogenized with Polytron and the homogenate is centrifuged for 30 min. at 48,000 g. The membrane pellet is re-suspended in 50 mM Tris HCl buffer at pH 7.4 for A1 adenosine receptors, in 50 mM Tris HCl, 10 mM MgCl2 at pH 7.4 for A2A adenosine receptors, in 50 mM Tris HCl, 10 mM MgCl2, 1 mM EDTA at pH 7.4 for A3 adenosine receptors and are utilized for binding and adenylate cyclase assays.
Membrane preparation is suspended in 0.5 mL of incubation mixture (50 mM Tris HCl, MgCl2 10 mM, EDTA, 1 mM, pH 7.4) containing GTP 5 µM, 0.5 mM 4-(3-buthoxy-4-methoxybenzyl)-2-imidazolidinone (Ro 20-1274) as phosphodiesterase inhibitor, 2.0 IU/mL adenosine deaminase and pre-incubated for 10 min. in a shaking bath at 37° C. […]

[1] = target: T2, human recombinant A1 adenosine receptor (Homo sapiens, UniProt P30542); test: Human cloned A1 receptor binding, [3H]-DPCPX, CHO cells; details: hydrochloride, read-out: hA1 (Ki)
T2 construct: expressed in transfected cells; host or cells: CHO
T2 sequence (P30542 1-326): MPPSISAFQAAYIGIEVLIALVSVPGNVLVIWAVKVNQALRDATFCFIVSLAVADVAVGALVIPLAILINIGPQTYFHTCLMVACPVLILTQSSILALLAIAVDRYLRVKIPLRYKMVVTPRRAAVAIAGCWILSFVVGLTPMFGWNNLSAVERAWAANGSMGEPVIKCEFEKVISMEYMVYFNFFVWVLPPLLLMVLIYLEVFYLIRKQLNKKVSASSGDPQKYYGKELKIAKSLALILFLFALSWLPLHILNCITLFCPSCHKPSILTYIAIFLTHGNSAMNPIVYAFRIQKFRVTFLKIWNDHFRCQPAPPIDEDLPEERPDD
Protocol: as §1
Binding of [^3H]-DPCPX to CHO cells transfected with the human recombinant A1 adenosine receptor is performed according to the method previously described by Klotz and coworkers (Klotz, K. N.; Cristalli, G.; Grifantini, M.; Vittori, S.; Lohse, M. J., “Photoaffinity labeling of A1 adenosine receptors,” J. Biol. Chem., 260, 14659-14664, 1985).
(§2) Displacement experiments are performed for 120 min. at 25° C. in 0.20 mL of buffer containing 1 nM [^3H]-DPCPX, 20 μL of diluted membranes (50 μg of protein/assay) and at least 6-8 different concentrations of examined compounds. Non-specific binding is determined in the presence of 10 μM of CHA and this is always 10% of the total binding. Binding of [^3H]-SCH58261 to CHO cells transfected with the human recombinant A2A adenosine receptors (50 μg of protein/assay) was performed according to Varani et al. (Varani, K; Cacciari, B.; Baraldi, P. G.; Dionisotti, S.; Ongini, E.; Borea, P. A., “Binding affinity of adenosine receptor agonists and antagonists at human cloned […] adenosine receptors,” Life Sci., 63, 81-87, 1998). In competition studies, at least 6-8 different concentrations of compounds are used and non-specific binding is determined in the presence of 50 μM NECA for an incubation time of 60 min. at 25° C.

[2] = target: T3, human recombinant A2B adenosine receptors (Homo sapiens, UniProt P29275); test: Human cloned A2B receptor binding, [3H]-DPCPX, HEK-293 cells; details: hydrochloride, read-out: hA2B (Ki)
T3 construct: host or cells: HEK-293
T3 sequence (P29275 1-332): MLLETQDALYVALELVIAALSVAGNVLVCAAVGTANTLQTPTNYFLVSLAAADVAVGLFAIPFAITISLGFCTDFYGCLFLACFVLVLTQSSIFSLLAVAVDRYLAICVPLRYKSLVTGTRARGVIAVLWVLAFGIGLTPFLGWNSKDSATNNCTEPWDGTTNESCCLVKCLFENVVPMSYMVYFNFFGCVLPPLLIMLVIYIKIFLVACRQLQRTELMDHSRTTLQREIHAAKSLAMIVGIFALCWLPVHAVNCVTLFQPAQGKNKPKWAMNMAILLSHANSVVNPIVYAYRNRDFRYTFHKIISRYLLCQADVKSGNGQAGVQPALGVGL
Protocol: Binding of [^3H]-DPCPX to HEK-293 cells (Receptor Biology, Inc., Beltsville, Md.) transfected with the human recombinant A2B adenosine receptors is performed essentially to the method described by Varani and coworkers (Mol. Pharmacol.). In particular, assays are carried out for 60 min. at 25° C. in 0.1 mL of 50 mM Tris HCl Buffer, 10 mM MgCl2, 1 mM EDTA, 0.1 mM benzamidine pH 7.4, 2 IU/ml adenosine deaminase containing 40 nM [^3H]-DPCPX, diluted membranes (20 µg of protein/assay) and at least 6-8 different concentration of tested compounds. Non-specific binding is determined in the presence of 100 μM of NECA and is always 30% of the total binding.

[3] = target: T4, human recombinant A2A adenosine receptors (Homo sapiens, UniProt P29274); test: Human cloned A2A receptor binding, [3H]-SCH58261, CHO cells; details: hydrochloride, read-out: hA2A (Ki)
T4 construct: expressed in transfected cells; host or cells: CHO
Protocol: as §1, §2

Solubility in water = assay type: physicochemical
rA1 adenosine receptor [4] = target: T5, rA1 adenosine receptor (Rattus norvegicus, UniProt P25099); details: values taken from Kim et al., J. Med. Chem. 1996; cited from earlier work
T5 construct: membranes of rat brain (150-200 μg- of protein/assay); from tissue; host or cells: whole brain of male Wistar rats
T5 sequence (P25099 1-326): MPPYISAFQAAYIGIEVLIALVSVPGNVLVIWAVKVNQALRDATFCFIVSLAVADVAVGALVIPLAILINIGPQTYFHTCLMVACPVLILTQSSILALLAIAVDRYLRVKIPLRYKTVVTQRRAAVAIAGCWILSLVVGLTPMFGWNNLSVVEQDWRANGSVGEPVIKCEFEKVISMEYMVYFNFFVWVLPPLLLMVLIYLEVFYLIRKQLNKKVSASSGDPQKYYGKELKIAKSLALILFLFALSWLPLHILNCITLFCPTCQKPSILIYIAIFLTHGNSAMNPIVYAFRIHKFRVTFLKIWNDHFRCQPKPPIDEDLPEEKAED

rA2A adenosine receptor [5] = target: T6, rA2A adenosine receptor (Rattus norvegicus, UniProt P30543); details: values taken from Kim et al., J. Med. Chem. 1996; cited from earlier work
T6 construct: membranes of rat striatum (80-100 μmg of protein/assay); from tissue; host or cells: striatum of male Wistar rats

SKN-SH cell membranes = test: [125I]-ABMECA binding on tumor cell line membranes; details: 0.5 nM radioligand
Protocol: (§3) A series of binding experiments were performed on various tumor cell lines, using 0.5 nM [^125I]-ABMECA, with unspecific binding determined in the presence of 50 μM R-PIA or 200 μM NECA, on cell membranes of the cell lines. Specific binding was determined by substracting unspecific binding from total binding. The cell lines were the HL 60, NB4, SKN-MC, SKN-Be2C, SKN-SH and JURKAT cell lines.

SKN-MC cell membranes = test: [125I]-ABMECA binding on tumor cell line membranes; details: 0.5 nM radioligand
Protocol: as §3

NB4 cell membranes = test: [125I]-ABMECA binding on tumor cell line membranes; details: NB4, 0.5 nM radioligand
Protocol: as §3

SKN-Be2C cell membranes = test: [125I]-ABMECA binding on tumor cell line membranes; details: 0.5 nM radioligand
Protocol: as §3

[6] = target: T7, A3 receptor in Jurkat cell membranes (Homo sapiens, UniProt P0DMS8)
T7 sequence (P0DMS8 1-318): T1 sequence (P0DMS8 1-318)

[7] = target: T8, human A3 receptors expressed in HEK 293 cells (Homo sapiens, UniProt P0DMS8); details: saturation curve, FIG. 1, n=3
T8 sequence (P0DMS8 1-318): T1 sequence (P0DMS8 1-318)

JURKAT cell membranes = test: [125I]-ABMECA binding on tumor cell line membranes; set-up: species or system human; details: 0.5 nM radioligand
Protocol: as §3

HL 60 cell membranes = test: [125I]-ABMECA binding on tumor cell line membranes; set-up: species or system human; details: HL 60, 0.5 nM radioligand
Protocol: as §3

rA1 adenosine receptor [8] = target: T5, rA1 adenosine receptor; test: Rat A1 adenosine receptor binding assay, [3H]CHA displacement, rat brain membranes
Protocol: (§4) Male Wistar rats (200-250 g) were decapitated and the whole brain and striatum dissected on ice. […] The homogenate was centrifuged at 48,000 for 10 min, and the pellet was resuspended in the same buffer containing 2 IU/mL adenosine deaminase. After 30 min incubation at 37° C., the membranes were centrifuged and pellets were stored at −80° C. Prior to freezing, an aliquot of homogenate was removed for protein assay with bovine albumin as reference standard. Binding assays were performed on rat brain and striatum membranes respectively, in the presence of 10 mM MgCl2 at 25° C.
(§5) Separation of bound from free radio ligand was performed by rapid filtration through Whatman GF/B filters which were washed three times with ice-cold buffer. Filter bound radioactivity was measured by scintillation spectrometry after addition of 5 mL of Aquassure. […] Ki values were calculated from the Cheng-Prusoff equation. All binding data were analyzed using the nonlinear regression curve-fitting computer program LIGAND.

[9] = target: T9, human recombinant A3 adenosine receptor (Homo sapiens, UniProt P0DMS8); test: Human cloned A3 adenosine receptor binding assay, [125I]AB-MECA, HEK-293 membranes; set-up: USA; host or cells: HEK-293
T9 sequence (P0DMS8 1-318): T1 sequence (P0DMS8 1-318)

rA2A adenosine receptor [10] = target: T6, rA2A adenosine receptor; test: Rat A2A adenosine receptor binding assay, [3H]SCH58261 displacement, rat striatum membranes; details: rat striatum membranes, [3H]SCH58261; read-out: rA2A (Ki)
Protocol: as §4, §5

T6 sequence (P30543 whole entry): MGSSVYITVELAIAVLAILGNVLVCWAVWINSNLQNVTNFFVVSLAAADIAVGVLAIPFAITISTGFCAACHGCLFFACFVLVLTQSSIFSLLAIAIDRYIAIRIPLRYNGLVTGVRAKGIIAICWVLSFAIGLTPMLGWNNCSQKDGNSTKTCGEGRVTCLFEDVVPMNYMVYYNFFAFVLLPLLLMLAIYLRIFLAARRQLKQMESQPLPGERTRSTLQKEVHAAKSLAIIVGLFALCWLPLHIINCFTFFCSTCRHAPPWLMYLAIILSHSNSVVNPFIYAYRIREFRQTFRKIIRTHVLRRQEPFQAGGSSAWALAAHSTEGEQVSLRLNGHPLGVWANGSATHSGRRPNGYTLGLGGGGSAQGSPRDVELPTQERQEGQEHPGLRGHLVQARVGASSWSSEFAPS
T4 sequence (P29274 whole entry): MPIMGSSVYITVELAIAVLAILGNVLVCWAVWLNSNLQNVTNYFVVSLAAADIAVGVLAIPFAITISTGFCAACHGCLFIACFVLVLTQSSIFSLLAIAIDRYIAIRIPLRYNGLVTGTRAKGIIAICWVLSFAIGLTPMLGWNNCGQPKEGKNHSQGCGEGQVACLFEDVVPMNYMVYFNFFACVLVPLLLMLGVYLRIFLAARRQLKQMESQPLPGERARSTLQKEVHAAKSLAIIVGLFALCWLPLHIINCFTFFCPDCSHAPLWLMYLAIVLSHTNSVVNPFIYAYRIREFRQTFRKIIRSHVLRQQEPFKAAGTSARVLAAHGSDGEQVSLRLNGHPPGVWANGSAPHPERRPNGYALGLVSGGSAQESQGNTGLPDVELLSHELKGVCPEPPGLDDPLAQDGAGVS

Cl.Cn1cc2c(nc(NC(=O)Nc3ccncc3)n3nc(-c4ccco4)nc23)n1 [Compound 107, N-[2-(2-furyl)-8-methyl-8H-pyrazolo[4,3-e][1,2,4]triazolo[1,5-c]pyrimidin-5-yl]-N′-pyridin-4-ylurea hydrochloride]
potency of adenosine A3 antagonism (block of C1-IB-MECA induced inhibition of cAMP production) (adenosine A3 receptor): comparable
Ki [1]: 350 nM
Ki [2]: 250 nM
Ki [3]: 100 nM
solubility in water (Solubility in water): soluble in water

O=C(Cc1ccccc1)Nc1nc2ccc(Cl)cc2c2nc(-c3ccco3)nn12 [MRS 1220]
Ki (rA1 adenosine receptor [4]): 305 ± 51 nM
Ki (rA2A adenosine receptor [5]): 52 ± 8.8 nM

CNC(=O)[C@H]1O[C@@H](n2cnc3c(NCc4ccc(N)c([125I])c4)ncnc32)[C@H](O)[C@@H]1O [[^125I]AB-MECA, [^125I]N^6-(4-amino-3-iodobenzyl)adenosine-5′N-methyluronamide]
Percent Specific Binding (SKN-SH cell membranes): 3%
Specific Binding (cpm) (SKN-SH cell membranes): 91 cpm
Percent Specific Binding (SKN-MC cell membranes): 17%
Specific Binding (cpm) (SKN-MC cell membranes): 1308 cpm
Percent Specific Binding (NB4 cell membranes): 19%
Specific Binding (cpm) (NB4 cell membranes): 637 cpm
Percent Specific Binding (SKN-Be2C cell membranes): 24%
Specific Binding (cpm) (SKN-Be2C cell membranes): 1415 cpm
Bmax (fmol/mg protein) / density of A3 receptor detected ([6]; FIG. 3): approximately 300 fmol/mg protein
Bmax (fmol/mg protein) / density of A3 receptor detected ([6]; FIG. 3, listed as [^125I]-ABMECA): 290 fmol/mg protein
Bmax value [7]: 62±1 fmol/mg protein
Percent Specific Binding (JURKAT cell membranes): 38%
Specific Binding (cpm) (JURKAT cell membranes): 2846 cpm
Percent Specific Binding (HL 60 cell membranes): 20%
Specific Binding (cpm) (HL 60 cell membranes): 693 cpm

CC(C)CCn1cc2c(nc(NC(=O)Cc3ccccc3)n3nc(-c4ccco4)nc23)n1 [Compound 58, 5-[(Benzyl)carbonyl]amino-8-isopentyl-2-(2-furyl)-pyrazolo[4,3.e]1,2,4-triazolo[1,5-c]pyrimidine]
melting point: 144 to 145 °C
Ki (rA1 adenosine receptor [8]): 373 nM
Ki ([9]; HEK-293 membranes, [125I]AB-MECA, read-out: hA3 (Ki)): 81.1 nM
rA1/hA3 ([9]; selectivity ratio of Ki values): 4.6
rA2A/hA3 ([9]; selectivity ratio of Ki values): 4
Ki (rA2A adenosine receptor [10]): 323 nM
